According to patent US20070134355A1, “Use of plant parts of prickly pear (opuntia) and/or extracts therefrom for the treatment of depressions” (priority 2003, published 2007):
Values joined by “and” are separate entries in the source; they are usually repeats but may differ in a detail not shown here. Equal values may be shown once.

System: rats
Assay: forced swimming test in rats
Format: in vivo, rat
Details: percentage of inhibition against the control group
Description: The antidepressive efficacy has been tested by means of the so-called “forced swimming test” in rats. In this test rats are brought into an impasse during a defined period of five minutes (glass cylinder filled with water). In this test the rats reacted with a rigour referred to as immobilization time, which is interpreted to correlate with a depression. If the rats are treated with an antidepressively effective medicament prior to the test, the immobilization time decreases. Since other psychopharamaca such as anxiolytics or neuroleptics are not efficacious in this test, this test system is well suitable to detect antidepressive effects (R. D. Porsolt et al., Eur. J. Pharmacol. 47, 379-391 (1978); R. D. Porsolt et al., Adv. Pharmacol. Sci., 137-159 (1991)). In order to be efficacious, each of the heretofore known antidepressive agents has to be administered over a period of several days in this test, like in the case of patients. The test animals were treated either with the test substance or with a solvent only for control purposes or with the tricyclic antidepressive agent Imipramine in order to compare the efficacy. Imipramine was selected as the standard comparative substance, because it is one of the strongest antidepressive agents both in psychiatric practice and in animal model.
Tables 1 to 3 exemplarily show the efficacy of three different Opuntia extracts compared to the tricyclic antidepressive agent Imipramine as determined after a treatment period of 9 days. […] In this case, the inhibition was determined already after a treatment period of 3 days. For comparison purposes, the inhibition of the immobility was represented as the percentage of inhibition against the control group in each of the tables.

`COc1ccc(C(CN(C)C)C2(O)CCCCC2)cc1` (stereo not drawn) [Venlafaxine] was tested, and the Inhibition of immobility (dose 100 mg/kg, treatment period of 3 days) was 25%.
`CN(C)CCCN1c2ccccc2CCc2ccccc21` [Imipramine] was tested, and the Inhibition of immobility (dose 20 mg/kg, treatment period of 9 days) was 44% and the Inhibition of immobility (dose 30 mg/kg, treatment period of 9 days, 30 mg/kg) was 64% and 68%.
